Source: the supplement of paper PMC13380429
Counter-ions that a name gives are not always drawn.

Legend:
Settings in all cases: 72 h
Calu-3 [1] = experiment: relative viability EC50 (midpoint between 100% and the lowest measured viability); higher = less toxic
Caco-2 [2] = experiment: as above
HepG2 [3] = experiment: as above
Vero E6 [4] = experiment: as above
U2OS [5] = experiment: as above
Calu-3 [6] = experiment: cell viability relative to DMSO; higher = less toxic
Caco-2 [7] = experiment: as above
HepG2 [8] = experiment: as above
Vero E6 [9] = experiment: as above
U2OS [10] = experiment: as above
Calu-3 [11] = experiment: drug sensitivity score (DSS) for viability; higher = more toxic; extreme values may be limits of the assay
Caco-2 [12] = experiment: as above
HepG2 [13] = experiment: as above
Vero E6 [14] = experiment: as above
U2OS [15] = experiment: as above

Compound | relative viability EC50 (Calu-3 [1]) [µM] | relative viability EC50 (Caco-2 [2]) [µM] | relative viability EC50 (HepG2 [3]) [µM] | relative viability EC50 (Vero E6 [4]) [µM] | relative viability EC50 (U2OS [5]) [µM] | cell viability (Calu-3 [6]; 1 nM) [%] | cell viability (Calu-3 [6]; 10 nM) [%] | cell viability (Calu-3 [6]; 100 nM) [%] | cell viability (Calu-3 [6]; 1000 nM) [%] | cell viability (Calu-3 [6]; 10000 nM) [%] | cell viability (Caco-2 [7]; 1 nM) [%] | cell viability (Caco-2 [7]; 10 nM) [%] | cell viability (Caco-2 [7]; 100 nM) [%] | cell viability (Caco-2 [7]; 1000 nM) [%] | cell viability (Caco-2 [7]; 10000 nM) [%] | cell viability (HepG2 [8]; 1 nM) [%] | cell viability (HepG2 [8]; 10 nM) [%] | cell viability (HepG2 [8]; 100 nM) [%] | cell viability (HepG2 [8]; 1000 nM) [%] | cell viability (HepG2 [8]; 10000 nM) [%] | cell viability (Vero E6 [9]; 1 nM) [%] | cell viability (Vero E6 [9]; 10 nM) [%] | cell viability (Vero E6 [9]; 100 nM) [%] | cell viability (Vero E6 [9]; 1000 nM) [%] | cell viability (Vero E6 [9]; 10000 nM) [%] | cell viability (U2OS [10]; 1 nM) [%] | cell viability (U2OS [10]; 10 nM) [%] | cell viability (U2OS [10]; 100 nM) [%] | cell viability (U2OS [10]; 1000 nM) [%] | cell viability (U2OS [10]; 10000 nM) [%] | drug sensitivity score (Calu-3 [11]) | drug sensitivity score (Caco-2 [12]) | drug sensitivity score (HepG2 [13]) | drug sensitivity score (Vero E6 [14]) | drug sensitivity score (U2OS [15])
N#Cc1ccc2[nH]c(O)c(-c3ccc(CN4CCOCC4)cn3)c2c1 [AZD1080] | > 10 | > 10 | > 10 | > 10 | > 10 | 105 | 107 | 100 | 112 | 91.2 | 96.3 | 100 | 106 | 113 | 84.6 | 107 | 99.3 | 102 | 112 | 82.7 | 99.1 | 97.6 | 98.2 | 108 | 82 | 95.3 | 105 | 95.8 | 105 | 99.5 | 0 | 0.1 | 0.2 | 0.2 | 0
CC[C@@H]1C(=O)N(C)c2cnc(Nc3ccc(C(=O)NC4CCN(C)CC4)cc3OC)nc2N1C1CCCC1 [BI-2536] | 1.66 | 0.148 | 0.0445 | 0.805 | 0.132 | 93.3 | 97.3 | 85.4 | 77.7 | 3.8 | 94.4 | 96.5 | 56.8 | 61.3 | 31.5 | 106 | 92.2 | 27.4 | 24.2 | 7.7 | 96.2 | 98.7 | 103 | 37.4 | 1.1 | 97 | 103 | 53.1 | 28 | 8.1 | 8.6 | 13.6 | 26.1 | 12.8 | 19.8
CC1(C)CCC(C)(C)c2cc(C3(c4ccc(C(=O)O)cc4)OCCO3)ccc21 [BMS-649] | > 10 | > 10 | > 10 | > 10 | > 10 | 96.7 | 99 | 100 | 91.5 | 109 | 92.7 | 95.5 | 93.1 | 100 | 101 | 109 | 87.6 | 113 | 108 | 103 | 96 | 97.6 | 100 | 92.4 | 97.8 | 95.2 | 98.4 | 101 | 103 | 99 | 0 | 0 | 0 | 0 | 0
C=CCN1C[C@H](C)N([C@H](c2ccc(C(=O)N(CC)CC)cc2)c2cccc(O)c2)C[C@H]1C [BW-373U86] | > 10 | > 10 | > 10 | > 10 | > 10 | 92.9 | 103 | 107 | 102 | 101 | 101 | 102 | 96.1 | 96.7 | 95.2 | 95.5 | 93.7 | 101 | 86.9 | 96.3 | 105 | 100 | 105 | 94.9 | 104 | 100 | 102 | 96 | 104 | 97.8 | 0 | 0 | 0 | 0 | 0
CCC[C@@H]1C[C@@H](C(=O)N[C@@H]([C@H]2O[C@H](SC)[C@H](O)[C@@H](O)[C@H]2O)[C@H](C)Cl)N(C)C1 [CLINDAMYCIN HYDROCHLORIDE] | > 10 | > 10 | > 10 | > 10 | > 10 | 100 | 96.7 | 98.9 | 102 | 102 | 95.6 | 95.7 | 95.3 | 108 | 108 | 103 | 93 | 104 | 100 | 97.6 | 95.3 | 89.8 | 93.8 | 91.2 | 104 | 97.6 | 102 | 99.2 | 105 | 103 | 0 | 0 | 0 | 0 | 0
CCNC1(C(N)=O)CCN(c2ncnc3c2nc(-c2ccccc2Cl)n3-c2ccc(Cl)cc2)CC1 [CP-945,598] | > 10 | > 10 | > 10 | > 10 | > 10 | 109 | 102 | 97.5 | 108 | 104 | 96.2 | 98.9 | 88.3 | 80.7 | 89.3 | 103 | 95.6 | 100 | 95.3 | 86.6 | 101 | 103 | 98.6 | 101 | 104 | 104 | 104 | 101 | 98.1 | 95.7 | 0 | 3.1 | 0.4 | 0 | 0
S=C(S)OC1CC2CC1C1CCCC21 (stereo not given) [D609] | > 10 | > 10 | > 10 | > 10 | > 10 | 99.3 | 102 | 104 | 103 | 98 | 100 | 99.2 | 102 | 105 | 102 | 103 | 98.7 | 102 | 100 | 108 | 98.7 | 98 | 102 | 96 | 98.5 | 100 | 106 | 96.3 | 102 | 96.6 | 0 | 0 | 0 | 0 | 0
